Measurements published in patent publication US9834755B2, “Compositions and methods for enhanced generation of hematopoietic stem/progenitor cells” (FRED HUTCHINSON CANCER RESEARCH CENTER, priority 2011, dated 2017).
Marks after values point to notes of the source that are not given here.

B1: Delta1^Ext-IgG: engineered Notch ligand: extracellular domain of Delta1 fused to the Fc portion of human IgG1, immobilized on tissue culture flasks (protein)
chain: QVWSSGVFELKLQEFVNKKGLLGNRNCCRGGAGPPPCACRTFFRVCLKHYQASVSPEPPCTYGSAVTPVLGVDSFSLPDGGGADSAFSNPIRFPFGFTWPGTFSLIIEALHTDSPDDLATENPERLISRLATQRHLTVGEEWSQDLHSSGRTDLKYSYRFVCDEHYYGEGCSVFCRPRDDAFGHFTCGERGEKVCNPGWKGPYCTEPICLPGCDEQHGFCDKPGECKCRVGWQGRYCDECIRYPGCLHGTCQQPWQCNCQEGWGGLFCNQDLNYCTHHKPCKNGATCTNTGQGSYTCSCRPGYTGATCELGIDECDPSPCKNGGSCTDLENSYSCTCPPGFYGKICELSAMTCADGPCFNGGRCSDSPDGGYSCRCPVGYSGFNCEKKIDYCSSSPCSNGAKCVDLGDAYLCRCQAGFSGRHCDDNVDDCASSPCANGGTCRDGVNDFSCTCPPGYTGRNCSAPVSRCEHAPCHNGATCHERGHRYVCECARGYGGPNCQFLLPELPPGPAVVDLTEKLEGQGGPFPW
modifications: left off: a dimerising Fc or GST
notes: engineered Notch ligand: extracellular domain of Delta1 fused to the Fc portion of human IgG1, immobilized on tissue culture flasks

Tests used:
CD34+ cells = conditions: cited from earlier work
CD34^+ CB HSPC [1] = experiment: Ex vivo culture/expansion of CD34+ cord blood HSPC, cell counts and flow cytometric phenotype; assay type: cell-based, human; conditions: for CD34 expansion compared to IgG control: 7, 14, 18 and 21 days in culture, alone groups: data not shown
Experimental: (§1) Human cord blood samples for research were obtained from normal deliveries under Swedish Medical Center Institutional Review Board (Seattle) approval and after consent was obtained. The units were incubated in ammonium chloride red blood cell lysis buffer (consisting of 16.6 g NH4Cl, 2 g NaHCO3 and 74.4 mg EDTA per 2L of water) and resuspended in PBS with 2% human AB serum. Cells were incubated with CD34 Microbeads from Miltenyi Biotec and purified with an Automacs (Miltenyi Biotec). Cells were then frozen and thawed at time of use with PBS+1% FBS. Pools of 2 or more cord blood units were used for all experiments. Peripheral blood stem cells (PBSC) were obtained from a single donor and cryopreserved after CD34^+ cell selection.
Cells were cultured for 16 days in non-tissue-cultured-treated tissue culture flasks (25, 75, and 175-cm^2). Flasks were precoated with Delta1^ext-IgG (ligand preparation described in Delaney C. et al., 2005, Blood 106(8):2693-2699; and Varnum-Finney et al., 2000, J. Cell Science 113: 4313-4318), or human control IgG at 2.5 μg/ml and retronectin 5 μg/ml. Delta1^ext-IgG titrations were performed with concentrations of 0.5, 1.25 (for PBSC), 2.5, or 5 μg/ml. Flasks were incubated at 4° C. overnight or 37° C. for 2 hours and then washed with PBS and blocked with PBS 2% BSA for 30 minutes at 37° C. Cells were cultured in StemSpan serum-free expansion medium in the presence of 4 growth factors (IL6 (50 ng/ml), thrombopoietin (50 ng/ml), Flt-3 ligand (50 ng/ml), stem cell factor (50 ng/ml)) or 5 growth factors (4 growth factors plus IL3 (10 ng/ml)). SR-1 was made fresh and added to cells with all feedings at a concentration of 750 nM. Cultures in 25-cm^2 flasks were initiated with between 7×10^4 and 1.3×10^5 CD34^+ cells. Cultures in 75-cm^2 flasks were initiated with 3×10^5 CD34^+ cells. Cells were expanded to larger flasks when they exceeded cell density >1×10^6 cells/ml. Expansions typically occurred on day 7 and 10 of culture. Fresh media with cytokines was added very 3-4 days including the day prior to transplantation.
Immunofluorescence analysis was performed as described (see Ohishi et al., 2002, J Clin Invest. 110(8): 1165-1174), with FITC-labeled antibodies against human CD3, CD14, CD15, CD33, CD34, CD90, phycoerythryin (PE)-labeled antibodies against human CD19, CD56, CD90, CD133, Glycophorin A, CXCR4, PERCP-labeled antibodies against human CD14, CD34, APC-labeled antibodies against human CD45, CD90 and PECy7 labeled antibody against mouse CD45.1.
To determine whether Delta1^Ext-IgG and SR1 in combination were successfully able to expand CD34^+ CB HSPC ex vivo, CD34^+ cell generation, an HSPC enriched population routinely used in clinical application, was assessed at multiple time points in culture as compared to IgG control. CD34^+ CB progenitors were isolated by bead selection and Automacs and then cultured for 21 days in StemSpan serum-free expansion media supplemented with cytokines (TPO, SCF, IL-6, and Flt3-ligand at 50 ng/ml). […] Cells were cultured in the presence of SR1 (750 nM) and Delta1^Ext-IgG (0.5 or 2.5 μg/ml) or an IgG control. The engineered Notch ligand, Delta1^ext-IgG, contains the extracellular domain of Delta1 fused to the Fc portion of human IgG1 and is immobilized on the plastic surface of tissue culture flasks at varying densities. Immobilization of the Fc portion of human IgG1 served as a control construct. […] CD34^+ selected cells were seeded per flask from a pool of 2 CB units. […]

CD34^+ cord blood HSPC = conditions: culturing HSPC with SR1; cited from earlier work
CD34^+ CB HSPC [2] = experiment: In vivo repopulation: cultured progeny of CD34+ CB HSPC transplanted into sublethally irradiated NSG mice; parameters: species or system human; conditions: for human engraftment upon secondary transplantation, average CD45^+: differences not statistically significant
Experimental: Sublethally irradiated NOD-SCID IL-2Rγ-null mice (obtained from an established breeding colony at the Fred Hutchinson Cancer Research Center and approved for use by the Fred Hutchinson Cancer Research Center Institutional Animal Care and Use Committee) were infused with the progeny 10,000 starting CD34^+ cells per mouse via tail vein for cord blood experiments and the progeny of 20,000 for PBSC experiments. Repopulating ability of infused cells was assessed at 2-3 weeks post-transplant by bone marrow aspiration and at 13 weeks by bone marrow harvest.
Cells were cultured as described above and transplanted into sublethally irradiated immunodeficient NSG mice. Total human engraftment was defined as percent of human CD45^+ murine CD45.1^− cells based on bone marrow aspirate at 2 weeks post-transplant. Total myeloid engraftment was defined as percent human CD45^+CD33^+ murine CD45.1 cells on bone marrow aspirate at the same time point.
The progeny of 1×10^4 CD34^+ cells were then transplanted into 10 sublethally irradiated NSG mice per condition and engraftment was assessed by bone marrow aspirate at 2 weeks post-transplant. Total human engraftment was defined as percent of human CD45^+ murine CD45.1^− cells based on bone marrow aspirate at 2 weeks post-transplant. Total myeloid engraftment was defined as percent human CD45^+CD33^+ murine CD45.1^− cells on bone marrow aspirate at the same time point.
Transplants into NSG mice were performed as described above, with the cultured progeny of 1×10^4 CD34^+ cells. Cells were cultured in the presence of SR1, Delta1^Ext-IgG 2.5 μg/ml, or SR1 and Delta1^Ext-IgG (2.5 or 5 μg/ml) for 16 days.
Cells were cultured and transplanted as described above with the progeny of 1×10^4 CD34^+ cells transplanted per mouse. Total human, progenitor cell, myeloid, and lymphoid assessments were performed on bone marrow samples. Bone marrow aspirates were performed in the mice at 2 and 8 weeks post-transplant, and mice were sacrificed for bone marrow harvest at 13 weeks.

[3] = system: mobilized peripheral blood stem cells (mPBSC); experiment: Ex vivo culture of mobilized peripheral blood stem cells; assay type: cell-based, human; conditions: mPBSC cultured 16 days
Experimental: as §1
Cells were cultured for 16 days in non-tissue-cultured-treated tissue culture flasks (25, 75, and 175-cm^2). Flasks were precoated with Delta1^ext-IgG (ligand preparation described in Delaney C. et al., 2005, Blood 106(8):2693-2699; and Varnum-Finney et al., 2000, J. Cell Science 113: 4313-4318), or human control IgG at 2.5 μg/ml and retronectin 5 μg/ml. Delta1^ext-IgG titrations were performed with concentrations of 0.5, 1.25 (for PBSC), 2.5, or 5 μg/ml. Flasks were incubated at 4° C. overnight or 37° C. for 2 hours and then washed with PBS and blocked with PBS 2% BSA for 30 minutes at 37° C. […]

CD34^+ CB HSPC [4] = experiment: SRC frequency by limiting dilution analysis in NSG mice; assay type: in vivo, human; conditions: Delta1^Ext-IgG 2.5 μg/ml alone, 5 μg/ml with SR1; for No. mice engrafted, Engraftment with ≧0.5% CD34^+ cells / No. mice engrafted, Engraftment with ≧1% CD33^+ cells / No. mice engrafted, Engraftment with ≧1% CD34^+ cells / No. mice engrafted, Engraftment with ≧5% CD33^+ cells: bone marrow aspirate at 2 weeks; for CD33^+ SRC frequency per starting cell, Engraftment with ≧1% CD33^+ cells / CD33^+ SRC frequency per starting cell, Engraftment with ≧5% CD33^+ cells / CD34^+ SRC frequency per starting cell, Engraftment with ≧0.5% CD34^+ cells / CD34^+ SRC frequency per starting cell, Engraftment with ≧1% CD34^+ cells: limiting dilution analysis, maximum likelihood
Excerpt: Human cord blood (CB) samples for research were obtained from normal deliveries under Swedish Medical Center Institutional Review Board (Seattle) approval and after consent was obtained. CB samples were red blood cell depleted (Delaney et al., 2010, Nat Med 16(2):232-236), CD34 enriched using CD34^+ immunomagnetic particles (Miltenyi Biotec), purified with Automacs (Miltenyi Biotec), and cryopreserved. […] Cultures were initiated with 7×10^4 to 1.3×10^5 CD34^+ cells for 25-cm^2 flasks and with 3×10^5 CD34^+ cells for 75-cm^2 flasks. Immunofluorescence analysis was performed as described (Ohishi et al., 2002, J Clin Invest. 110(8):1165-1174) with labeled antibodies: FITC (human CD14, CD33, and Lineage); PE (human CD7, CD14, CD15, CD19, CD90, and CD123); PERCP (human CD34); APC (human CD10, CD45, IL3Ra); PECy7 (mouse CD45.1, human CD34); Alexa Fluor 700 (CD38); APC-eFluor 780 (CD45RA). Transplants were performed in sublethally irradiated (275 rad) NOD-SCID IL-2Rγ-null mice (NSG). In vivo engraftment was assessed by immunofluorescence analysis of human cell subsets (human CD45^+ murine CD45.1). On average, the total number of cells infused was 4.25×10^6/mouse for Delta1^ext-IgG alone, 1.88×10^7/mouse for SR1 alone, and 4.76×10^6/mouse for the combination. Statistical analyses were performed as indicated. For limiting dilution analysis, mice were injected with the cultured progeny of the number of CD34^+ cells indicated and bone marrow aspirates performed at 2 weeks. Two engraftment cut-offs were chosen based on percent engraftment observed in non-limiting transplantation studies. The frequency of SRCs was determined by the method of maximum likelihood with L-CALC software (StemCell Technologies) from the proportions of engrafted recipients (A, B).

HSPC = conditions: culturing HSPC with SR1; cited from earlier work
[5] = patients, vs concurrent cohort receiving double cord blood transplantation of non-manipulated units; cited from earlier work

Molecule | EC50 (CD34+ cells) [µM] | CD34 expansion compared to IgG control (CD34^+ CB HSPC [1]) | human engraftment upon secondary transplantation, average CD45^+ (CD34^+ CB HSPC [2]) [%] | No. mice engrafted, Engraftment with ≧0.5% CD34^+ cells (CD34^+ CB HSPC [4]; 1000 CD34^+ cells/mouse) | No. mice engrafted, Engraftment with ≧1% CD33^+ cells (CD34^+ CB HSPC [4]; 1000 CD34^+ cells/mouse) | No. mice engrafted, Engraftment with ≧1% CD34^+ cells (CD34^+ CB HSPC [4]; 1000 CD34^+ cells/mouse) | No. mice engrafted, Engraftment with ≧5% CD33^+ cells (CD34^+ CB HSPC [4]; 1000 CD34^+ cells/mouse) | No. mice engrafted, Engraftment with ≧0.5% CD34^+ cells (CD34^+ CB HSPC [4]; 4000 CD34^+ cells/mouse) | No. mice engrafted, Engraftment with ≧1% CD33^+ cells (CD34^+ CB HSPC [4]; 4000 CD34^+ cells/mouse) | No. mice engrafted, Engraftment with ≧1% CD34^+ cells (CD34^+ CB HSPC [4]; 4000 CD34^+ cells/mouse) | No. mice engrafted, Engraftment with ≧5% CD33^+ cells (CD34^+ CB HSPC [4]; 4000 CD34^+ cells/mouse) | No. mice engrafted, Engraftment with ≧0.5% CD34^+ cells (CD34^+ CB HSPC [4]; 20000 CD34^+ cells/mouse) | No. mice engrafted, Engraftment with ≧1% CD33^+ cells (CD34^+ CB HSPC [4]; 20000 CD34^+ cells/mouse) | No. mice engrafted, Engraftment with ≧1% CD34^+ cells (CD34^+ CB HSPC [4]; 20000 CD34^+ cells/mouse) | No. mice engrafted, Engraftment with ≧5% CD33^+ cells (CD34^+ CB HSPC [4]; 20000 CD34^+ cells/mouse) | CD33^+ SRC frequency per starting cell, Engraftment with ≧1% CD33^+ cells (CD34^+ CB HSPC [4]) | CD33^+ SRC frequency per starting cell, Engraftment with ≧5% CD33^+ cells (CD34^+ CB HSPC [4]) | CD34^+ SRC frequency per starting cell, Engraftment with ≧0.5% CD34^+ cells (CD34^+ CB HSPC [4]) | CD34^+ SRC frequency per starting cell, Engraftment with ≧1% CD34^+ cells (CD34^+ CB HSPC [4]) | also measured
Fc1cncc(-c2nc(NCCc3c[nH]c4ccccc34)c3ncn(C4CCOC4)c3n2)c1 (stereo not drawn) [Example 158] | 0.012 | – | – | – | – | – | – | – | – | – | – | – | – | – | – | – | – | – | – | –
CC(C)n1cnc2c(NCCc3ccc(O)cc3)nc(-c3cncc(F)c3)nc21 [Example 134] | 0.2 | – | – | – | – | – | – | – | – | – | – | – | – | – | – | – | – | – | – | –
CC(C)n1cnc2c(NCCc3ccc(O)cc3)nc(-c3cccc4cnccc34)nc21 [Example 145] | 5.4 | – | – | – | – | – | – | – | – | – | – | – | – | – | – | – | – | – | – | –
CC(C)n1cnc2c(NCCc3ccc(O)cc3)nc(-c3cnccc3C#N)nc21 [Example 143] | 4.3 | – | – | – | – | – | – | – | – | – | – | – | – | – | – | – | – | – | – | –
CC(C)n1cnc2c(NCCc3ccc(O)cc3)nc(-c3csc4ccccc34)nc21 [SR1, 4-(2-(2-(benzo[b]thiophen-3-yl)-9-isopropyl-9H-purin-6-ylamino)ethyl)phenol] | – | enhanced CD34 expansion | 0.11 | 1/9 | 3/9 | 1/9 | 1/9 | 2/9 | 5/9 | 1/9 | 1/9 | 7/7 | 7/7 | 6/7 | 7/7 | 1/3868** | 1/10063^## | 1/8495** | 1/13514^## | total nucleated cell (TNC) expansion over IgG control and all Delta1^Ext-IgG conditions (CD34^+ CB HSPC [1]; 7-16 days in culture): enhanced; ex vivo generation of total nucleated cells (TNC) compared to Delta1^Ext-IgG (2.5 μg/ml) or SR1 and Delta1^Ext-IgG (5 μg/ml) combined (CD34^+ CB HSPC [1]; SR1 750 nM, 14 days, p<0.001, p=0.04): significantly enhanced; increase in CD34^+ cells (CD34^+ cord blood HSPC): 50 fold; rapid repopulation by B-lymphoid cells (percent CD45^+CD33^-CD19^+) in comparison with Delta1^Ext-IgG alone or the combination (CD34^+ CB HSPC [2]; early time point (2 weeks)): significantly enhanced; TNC and CD34^+ cell expansion in vitro [3]: greatest TNC and CD34^+ cell expansion; increase in the number of cells with the ability to repopulate immunodeficient mice (HSPC): 17 fold
B1 | – | enhanced CD34 expansion | 0.22 | 0/9 | 2/9 | 0/9 | 0/9 | 1/9 | 9/9 | 0/9 | 3/9 | 7/7 | 7/7 | 6/7 | 6/7 | 1/1719* | 1/11314^# | 1/11739* | 1/19121^# | reduction in time to neutrophil engraftment [5]: 50%; TNC generation with increasing densities of Delta1^Ext-IgG (CD34^+ CB HSPC [1]; day 16, SR1 with Delta1^Ext-IgG 0, 0.5, 2.5 or 5 μg/ml): decreased TNC generation in a stepwise manner
